Entries after “also recorded” stand apart in the source; their conditions may differ. Read-outs that look alike come from different tables or passages of the source.
How the values were obtained:
5-HT1D sites [1] = target: T1, 5-HT1D sites (Macaca mulatta, UniProt F6SFA9); test: Displacement of S-CM-G[125I]TNH2 binding with serotonin in monkey brain sections; set-up: species or system monkey (Macacca mulatta n.); conditions: displacement of 0.02 nM S-CM-G[125I]TNH2, read-out: IC50 (concentration which inhibits 50% of the binding)
T1 construct: The right hemisphere is cut out and frozen by isopentane cooled in liquid nitrogen; from tissue; host or cells: rhesus monkey brain sections (right hemisphere, 10 μm, frozen), substantia nigra
T1 sequence (F6SFA9 1-390): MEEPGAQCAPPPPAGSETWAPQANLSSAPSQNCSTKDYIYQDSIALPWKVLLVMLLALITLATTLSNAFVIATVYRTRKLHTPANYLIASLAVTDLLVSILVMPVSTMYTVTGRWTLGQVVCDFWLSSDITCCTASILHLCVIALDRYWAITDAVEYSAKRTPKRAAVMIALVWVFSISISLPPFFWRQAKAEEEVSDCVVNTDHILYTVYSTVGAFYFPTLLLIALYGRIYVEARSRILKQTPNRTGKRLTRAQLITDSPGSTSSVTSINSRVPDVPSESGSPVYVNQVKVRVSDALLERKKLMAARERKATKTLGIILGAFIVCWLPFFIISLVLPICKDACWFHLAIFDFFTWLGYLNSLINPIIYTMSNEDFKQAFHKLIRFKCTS
Procedure: (§1) A male monkey (Macacca mulatta n.) weighing 8 kg was sacrificed by means of an overdose of barbiturates and exsanguination. […] The right hemisphere is cut out and frozen by isopentane cooled in liquid nitrogen. The block is stored at -20° C. 10 μm thick sections are prepared in a cryostat at -20° C. and placed on gelatin-coated slides (Segu et al., 1990, J. Neurosci. Meth., 31, 197). They are stored at -20° C. until required.
(§2) The sections are preincubated for 1 h at 4° C. in a Krebs solution (mM: NaCl, 118; KCl, 4.5; CaCl2, 1.2; MgCl2, […]; Tris, 15; pH 7.4) in order to remove the endogenous ligands. They are then incubated at 20° C. for 60 minutes in a solution containing 10^-5 M pargyline, 57 mM ascorbic acid, 10 g/l of bovine serum albumin and 0.02 nM S--CM-G[^125 I]TNH2, alone or in the presence of increasing concentrations of serotonin. Some of the sections are incubated under identical conditions except that the radioactive probe is replaced either with 2 nM [^3 H]5-HT, or with 2 nM [^3 H]5-HT in the presence of 100 nM 8-hydroxy-2-[di-N-propylamino]tetralin (8-OH-DPAT) and 100 nM mesulergin, or with 1 nM [^3 H]8-OH-DPAT. After rinsing 2 x for 1 minute in distilled water, the sections are dried.
(§3) The slides are affixed to a tritium-sensitive film for 8 days. […] The autoradiographs are quantified with a video system for image analysis (Segu et al., 1990).

[2] = test system: receptor binding sites with a high affinity for serotonin (5-HT1); test: Displacement, by the derivatives S-CM-R, of the high affinity binding of [3H]5-HT in rat brain sections; conditions: 2 nM [3H]5-HT
Text: The distribution of the receptor binding sites with a high affinity for serotonin (5-HT1) is heterogeneous in the central nervous system of the rat (Pazos and Palacios, Brain Research, 346, 1985, p. 205-230; Segu et al., Brain Research, 384, 1986, p. 205-217). Furthermore, the content of subtypes of 5-HT1 sites varies according to the anatomical structure in question.
The protocol for preparing the brain sections is common to all the studies which follow. The animals are decapitated after anaesthesia with chloral hydrate (400 mg/kg of gross weight). The brains are quickly removed from the skull and frozen by immersion in isopentane cooled by liquid nitrogen. 20 μm sections, prepared in a cryostat at -20° C., are mounted on gelatin-coated slides and stored at -20° C.
The sections are preincubated for 1 hour at 4° C. in a Krebs solution (NaCl 118 mM; KCl 4.8 mm; CaCl2 1.2 mM; MgCl2 1.2 mM; Tris-HCl 15 mM, pH 7.4) in order to remove the endogenous ligands.
1. Displacement, by the derivatives S-CM-R, of the high affinity binding of serotonin in rat brain sections
The incubations take place for 60 minutes at 20° C. in a Krebs solution containing 10 μM pargyline, 5.7.10^-4 M ascorbic acid, 2 nM [^3 H]5-HT (NEN, As=30 Ci/mmol) and increasing concentrations of derivatives S-CM-R. The non-specific binding is determined on homothetic sections under the same conditions, but in the presence of 10^-5 M 5-HT.
After incubation, the sections are rinsed three times for 20 seconds in distilled water and dried by a stream of hot air. The sections are affixed to a film (Amersham) for 6 weeks in the presence of a standard ([^3 H] microscale, Amersham). The films are developed for 6 minutes with Kodak D19, rinsed and fixed with AL4 (Kodak). Quantitative analysis of the autoradiographs is performed with an image analysis system (Segu et al., J. Neurosci. Methods, 31, 1990, p. 197-208).

[3] = Passage across the blood-brain barrier after intracardiac injection (brain autoradiography); type: in vivo, mice and guinea-pigs; conditions: intracardiac injection; 10 minutes; conclusion
Procedure: 2 mice and 2 guinea-pigs are deeply anaesthetized with chloral hydrate (intraperitoneal injection of 0.12 ml of a 35% solution per 100 g of body weight).
The mice and guinea-pigs receive intracardiac injections of 200 μl and 1.5 ml, respectively, of S--CM-G[^125 I]TNH2.
After 10 minutes, the animals, still under deep anaesthesia, are decapitated and the brains are frozen and stored as indicated in Example 1.
Sections are prepared and autoradiography is carried out as described in Example 1.

5-HT1A sites = target: T2, 5-HT1A sites (Macaca mulatta, UniProt F7GIU0); test: Labelling of hippocampus in monkey brain sections (autoradiography); type: binding, monkey (Macacca mulatta n.)
T2 sequence (F7GIU0 1-421): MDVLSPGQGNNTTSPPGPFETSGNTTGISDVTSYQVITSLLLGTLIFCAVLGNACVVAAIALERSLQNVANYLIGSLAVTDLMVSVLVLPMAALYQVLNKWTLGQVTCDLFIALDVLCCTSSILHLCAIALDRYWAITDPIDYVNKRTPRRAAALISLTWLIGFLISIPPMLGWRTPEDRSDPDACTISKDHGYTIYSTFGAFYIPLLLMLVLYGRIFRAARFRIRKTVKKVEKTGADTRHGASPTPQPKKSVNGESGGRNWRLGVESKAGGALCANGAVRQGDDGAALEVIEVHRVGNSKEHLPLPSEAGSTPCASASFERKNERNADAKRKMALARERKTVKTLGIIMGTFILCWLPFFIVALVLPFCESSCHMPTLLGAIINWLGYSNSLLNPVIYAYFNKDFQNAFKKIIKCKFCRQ
Procedure: as §1, §2, §3

5-HT1D sites [4] = test: Labelling of substantia nigra in monkey brain sections (autoradiography); type: binding, monkey (Macacca mulatta n.); conditions: 1 nM [3H]8-OH-DPAT
Procedure: (§4) A male monkey (Macacca mulatta n.) weighing 8 kg was sacrificed by means of an overdose of barbiturates and exsanguination. […] The right hemisphere is cut out and frozen by isopentane cooled in liquid nitrogen. The block is stored at -20° C. […] They are stored at -20° C. until required.
(§5) Some of the sections are incubated under identical conditions except that the radioactive probe is replaced either with 2 nM [^3 H]5-HT, or with 2 nM [^3 H]5-HT in the presence of 100 nM 8-hydroxy-2-[di-N-propylamino]tetralin (8-OH-DPAT) and 100 nM mesulergin, or with 1 nM [^3 H]8-OH-DPAT. After rinsing 2 x for 1 minute in distilled water, the sections are dried.
(§6) The slides are affixed to a tritium-sensitive film for 8 days. The film is developed for 6 minutes in D19, rinsed and fixed.

5-HT1D sites [5] = target: T1, 5-HT1D sites; test: as above; type: binding, monkey (Macacca mulatta n.)
Procedure: as §4, §5, §6

[6] = 60 min at 20° C, single IC50, read-out: IC50 (displacement of specific binding of [3H]5-HT)
[7] = two-phase process, first site, read-out: IC50 for the first site (displacement of [3H]5-HT)
[8] = two-phase process, second site, read-out: IC50 for the second site (displacement of [3H]5-HT)

| Compound | phases of displacement of [3H]5-HT specific binding [2] | IC50 [2, 6] | IC50 [2, 7] | IC50 [2, 8] | other results |
| --- | --- | --- | --- | --- | --- |
| NCCc1c[nH]c2ccc(O)cc12 [5-HT, reference compound] | one-phase process | 2 nM |  |  | IC50 (5-HT1D sites [1]): ~5 nM |
| NCCc1c[nH]c2ccc(OCC(=O)O)cc12 [S--CM] |  | 1000 nM |  |  |  |
| NCCc1c[nH]c2ccc(OCC(=O)NCC(=O)N[C@@H](Cc3ccc(O)cc3)C(N)=O)cc12 [S-CM-GTNH2, tryptamine-5-O-carboxymethylglycyltyrosinamide] | two-phase process |  | 20 nM | 400 nM | passage across the blood-brain barrier [3]: unable to pass through the blood-brain barrier |
| NCCc1c[nH]c2ccc(OCC(=O)N[C@@H](Cc3ccc(O)cc3)C(=O)NCC(N)=O)cc12 [S-CM-Tyr-GlyNH2] | two-phase process |  | 20 nM | 400 nM |  |
| CCCN(CCC)C1CCc2cccc(O)c2C1 (stereo not shown) [[^3 H]8-OH-DPAT, 8-hydroxy-2-[di-N-propylamino]tetralin] |  |  |  |  | labelling of the hippocampus (5-HT1A sites; 1 nM [3H]8-OH-DPAT): intense labelling; also recorded: showing the 5-HT1A sites exclusively located in the hippocampus; labelling of the substantia nigra (5-HT1D sites [4]): not the substantia nigra |
| [^3 H]5-HT [reference compound] |  |  |  |  | labelling of the hippocampus (5-HT1A sites; 2 nM [3H]5-HT): substantial labelling; also recorded: showing the total 5-HT1 sites in the hippocampus (H); labelling of the substantia nigra (5-HT1D sites [5]; 2 nM [3H]5-HT): substantial labelling; also recorded: showing the total 5-HT1 sites in the hippocampus (H) and the substantia nigra (SN); labelling of the substantia nigra (5-HT1D sites [5]; 2 nM [3H]5-HT in the presence of 100 nM 8-OH-DPAT and 100 nM mesulergin): strong reaction with the substantia nigra; also recorded: showing the 5-HT1B sites virtually exclusively located in "the substantia nigra |

From US5298491A, “Derivatives of endogenous mediators, their salts, method of preparation, applications and compositions in which they are present” (priority 1990, dated 1994)
